Laboratory results from patent US20240124504A1, “AROMATIC HETEROCYCLIC COMPOUND, AND PHARMACEUTICAL COMPOSITION AND APPLICATION THEREOF” (GT APEIRON THERAPEUTICS LIMITED, priority 2020, published 2024).

Columns and labels:
[1] = test system: Caco-2 cells; assay: Caco-2 membrane permeability and efflux rate; assay type: in vitro ADME; conditions: Caco-2, 5 μM, 2 hours; for Papp(B-A): basal end to top end; for Papp(A-B): top end to basal end
Method in brief: (§1)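 Caco-2 monolayers after 14-18 days' culture; compound at 5 μM final in HBSS (10 mM HEPES, pH 7.4), apical-to-basal and basal-to-apical, 2 h at 37° C. LC/MS/MS gives Papp (10-6 cm/s) and efflux ratio; lucifer yellow checks monolayer integrity.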

[2] = test system: human breast cancer cells HCC70; assay: Cell biological activity detection (CyQuant, 72 hours), HCC70; assay type: cell-based; conditions: incubation for 72 hours
Method in brief: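 IC50 derived from CyQuant Direct nuclear staining (488 nm excitation) after 72 h compound exposure at 37 °C, 5% CO2. Compounds tested in 9 concentrations from 10 μM, 1:4 steps, 0.2% DMSO, on A2780 or HCC70 cells plated overnight at 2000/well in RPMI 1640 + 10% FBS.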

[3] = molecular target: CDK9/cyclinT1 complex (Homo sapiens, UniProt P50750); assay: In-vitro enzymatic inhibitory activity testing, CDK9 inhibition assay (Caliper EZ Reader II); assay type: biochemical; conditions: CDK9/cyclinT1 8 nM, 180 min at 27° C.
Method in brief: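 Phosphorylated and unphosphorylated fluorescent peptide were resolved by mobility-shift electrophoresis, with IC50 taken from a nonlinear regression of dose-response data. Reactions ran 180 min at 27 °C in MES buffer pH 6.5 with MgCl2, after 10 min enzyme–compound preincubation, using 8 nM CDK9/cyclinT1 and 5-FAM-CDK9tide.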

[4] = molecular target: CDK7/cyclinH/MAT1 complex (Homo sapiens, UniProt P50613); assay: In-vitro enzymatic inhibitory activity testing, CDK7 inhibition assay (Caliper EZ Reader II); assay type: biochemical; conditions: CDK7/cyclinH/MAT1 6 nM, 180 min at 27° C.
Method in brief: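 Enzyme preincubated 10 min with compound, then peptide substrate plus ATP added in 80 mM MES pH 6.5, 10 mM MgCl2 buffer; 180 min at 27 °C, stopped with EDTA.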

[5] = Caco-2 membrane permeability and efflux rate; assay type: in vitro ADME; conditions: human, Caco-2, Caco-2, 5 μM; for Papp B→A at 2 h, 5 μM: basal end to top end; for efflux ratio at 2 h, 5 μM: read-out: ER (efflux rate); for Papp A→B at 2 h, 5 μM: top end to basal end
Method in brief: as §1

Chain of CDK9/cyclinT1 complex (P50750 whole entry, species assumed): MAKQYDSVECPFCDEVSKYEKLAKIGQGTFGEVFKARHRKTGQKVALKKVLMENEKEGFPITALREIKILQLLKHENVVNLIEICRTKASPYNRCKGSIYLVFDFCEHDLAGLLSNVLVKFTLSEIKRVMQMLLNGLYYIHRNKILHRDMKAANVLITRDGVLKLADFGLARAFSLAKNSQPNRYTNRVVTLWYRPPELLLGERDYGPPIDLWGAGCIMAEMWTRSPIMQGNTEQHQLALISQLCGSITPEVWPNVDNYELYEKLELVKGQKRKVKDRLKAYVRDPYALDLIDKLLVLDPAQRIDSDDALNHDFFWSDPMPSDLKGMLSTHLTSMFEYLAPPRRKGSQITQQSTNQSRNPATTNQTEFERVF
Chain of CDK9/cyclinT1 complex (O60563 whole entry partner, species assumed): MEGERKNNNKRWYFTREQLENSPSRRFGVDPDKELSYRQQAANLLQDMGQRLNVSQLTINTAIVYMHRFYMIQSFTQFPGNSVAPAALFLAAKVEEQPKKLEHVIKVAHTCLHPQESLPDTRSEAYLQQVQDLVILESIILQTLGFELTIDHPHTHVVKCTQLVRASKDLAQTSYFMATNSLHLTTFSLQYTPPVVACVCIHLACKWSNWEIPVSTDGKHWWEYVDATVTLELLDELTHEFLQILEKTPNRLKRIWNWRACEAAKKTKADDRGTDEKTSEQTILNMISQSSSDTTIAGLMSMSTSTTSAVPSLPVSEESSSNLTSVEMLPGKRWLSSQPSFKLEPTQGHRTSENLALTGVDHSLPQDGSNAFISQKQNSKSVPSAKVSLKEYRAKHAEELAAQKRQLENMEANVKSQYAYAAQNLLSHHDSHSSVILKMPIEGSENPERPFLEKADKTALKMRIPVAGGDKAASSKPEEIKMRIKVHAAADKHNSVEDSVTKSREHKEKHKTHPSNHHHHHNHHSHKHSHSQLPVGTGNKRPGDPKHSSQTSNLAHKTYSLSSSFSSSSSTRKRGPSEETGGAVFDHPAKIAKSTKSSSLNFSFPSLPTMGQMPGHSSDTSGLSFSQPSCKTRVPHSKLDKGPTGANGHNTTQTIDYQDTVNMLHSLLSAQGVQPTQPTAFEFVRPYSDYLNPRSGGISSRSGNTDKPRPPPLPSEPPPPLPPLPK
Chain of CDK7/cyclinH/MAT1 complex (P50613 whole entry, species assumed): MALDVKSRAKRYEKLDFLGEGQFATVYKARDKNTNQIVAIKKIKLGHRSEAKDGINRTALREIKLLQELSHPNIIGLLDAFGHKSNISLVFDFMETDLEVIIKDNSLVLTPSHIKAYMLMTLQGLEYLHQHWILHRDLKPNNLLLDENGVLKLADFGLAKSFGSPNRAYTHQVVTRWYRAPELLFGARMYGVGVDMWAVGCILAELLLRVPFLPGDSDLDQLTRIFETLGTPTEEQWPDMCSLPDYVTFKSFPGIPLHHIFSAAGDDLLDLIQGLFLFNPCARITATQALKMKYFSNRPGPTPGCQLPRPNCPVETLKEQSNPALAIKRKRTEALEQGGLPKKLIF
Chain of CDK7/cyclinH/MAT1 complex (P51946 whole entry partner, species assumed): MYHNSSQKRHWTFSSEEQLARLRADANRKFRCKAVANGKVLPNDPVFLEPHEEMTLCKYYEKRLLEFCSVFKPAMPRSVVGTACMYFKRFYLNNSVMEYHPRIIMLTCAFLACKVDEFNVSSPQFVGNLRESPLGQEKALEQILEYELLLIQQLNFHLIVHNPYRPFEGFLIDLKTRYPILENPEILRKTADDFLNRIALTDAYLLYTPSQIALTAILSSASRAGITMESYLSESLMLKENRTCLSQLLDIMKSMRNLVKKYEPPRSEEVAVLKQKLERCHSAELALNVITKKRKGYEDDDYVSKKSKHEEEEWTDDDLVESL
Chain of CDK7/cyclinH/MAT1 complex (P51948 whole entry partner, species assumed): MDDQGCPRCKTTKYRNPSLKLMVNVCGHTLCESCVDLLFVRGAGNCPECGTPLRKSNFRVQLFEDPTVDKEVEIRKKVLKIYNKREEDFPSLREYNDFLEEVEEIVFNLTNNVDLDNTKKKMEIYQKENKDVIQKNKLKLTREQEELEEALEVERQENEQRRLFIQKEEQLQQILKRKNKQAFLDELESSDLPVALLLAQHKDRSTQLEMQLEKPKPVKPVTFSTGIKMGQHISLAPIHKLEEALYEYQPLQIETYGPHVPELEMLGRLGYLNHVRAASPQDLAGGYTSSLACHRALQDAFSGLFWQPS

ER (efflux rate) [1]	Papp(B-A) [1]	Papp(A-B) [1]	IC50 [3] [nM]	IC50 [4] [nM]	Papp B→A at 2 h, 5 μM [5] [×10⁻⁶ cm/s]	efflux ratio at 2 h, 5 μM [5]	Papp A→B at 2 h, 5 μM [5] [×10⁻⁶ cm/s]	Structure (SMILES)	IC50 [2] [nM]	IC50 ([2]; Homo sapiens, HCC70, 72 h) [nM]
12.7	36.73 10^−6, cm/s	2.89 10^−6, cm/s	> 50000	20 to 200				CP(C)(=O)c1cccc2c(-c3nc(NCC4CC4CO)ncc3C(F)(F)F)c[nH]c12 (single isomer, unassigned) [Compound 144]	20 to 200	
5.95	27.87 10^−6, cm/s	4.68 10^−6, cm/s	> 50000	< 20				CC(CO)CNc1ncc(C(F)(F)F)c(-c2c[nH]c3c(P(C)(C)=O)cccc23)n1 (single isomer, unassigned) [Compound 150]	< 20	
6.03	35.08 10^−6, cm/s	5.82 10^−6, cm/s	> 50000	< 20				CC(O)[C@H](C)Nc1ncc(C(F)(F)F)c(-c2c[nH]c3c(P(C)(C)=O)cccc23)n1 (single isomer, unassigned) [Compound 130]	20 to 200	
			> 50000	< 20	22.4	5.86	3.82	CP(C)(=O)c1cccc2c(-c3nc(NC[C@H]4C[C@](C)(O)C4)ncc3C(F)(F)F)c[nH]c12 [Compound 127, (3-(2-(((trans-3-hydroxy-3-methylcyclobutyl)methyl)amino)-5-(trifluoromethyl)pyrimidin-4-yl)-1H-indole-7-yl)dimethylphosphine oxide]		< 20
			> 50000	< 20	17.1	2.14	7.99	CP(C)(=O)c1cccc2c(-c3nc(NC4(CO)CCC4)ncc3C(F)(F)F)c[nH]c12 [Compound 168, (3-(2-((1-(hydroxymethyl)cyclobutyl)amino)-5-(trifluoromethyl)pyrimidin-4-yl)-1H-indole-7-yl)dimethylphosphine oxide]		20 to 200

Further lines, the compound ahead of its results:

Structure (SMILES)	ER (efflux rate) [1]	Papp(B-A) [1]	Papp(A-B) [1]	IC50 [3] [nM]	IC50 [4] [nM]	Papp B→A at 2 h, 5 μM [5] [×10⁻⁶ cm/s]	efflux ratio at 2 h, 5 μM [5]	Papp A→B at 2 h, 5 μM [5] [×10⁻⁶ cm/s]	IC50 [2] [nM]	IC50 ([2]; Homo sapiens, HCC70, 72 h) [nM]
CP(C)(=O)c1cccc2c(-c3nc(NC4(CO)CCOC4)ncc3C(F)(F)F)c[nH]c12 (single isomer, unassigned) [Compound 119]	15.3	34.09 10^−6, cm/s	2.23 10^−6, cm/s	> 50000	20 to 200				20 to 200	
C[C@@H](CO)Nc1ncc(C(F)(F)F)c(-c2c[nH]c3c(P(C)(C)=O)cccc23)n1 [Compound 82, (S)-(3-(2-((1-hydroxypropyl-2-yl)amino)-5-(trifluoromethyl)pyrimidin-4-yl)-1H-indole-7-yl)dimethylphosphine oxide]				> 50000	< 20	23.6	3.95	5.32		< 20
CC(C)(CO)Nc1ncc(C(F)(F)F)c(-c2c[nH]c3c(P(C)(C)=O)cccc23)n1 [Compound 85, (3-(2-((1-hydroxy-2-methylpropan-2-yl)amino)-5-(trifluoromethyl)pyrimidin-4-yl)-1H-indole-7-yl)dimethylphosphine oxide]				> 50000	< 20	21.3	2.77	7.69		20 to 200
